Legend:
[1] = target: 5-hydroxytryptamine receptor 6 (Homo sapiens) (UniProt P50406); details: Compound concentration 10.0 uM
[2] = target: Muscarinic acetylcholine receptor M3 (Homo sapiens) (UniProt P20309); details: Compound concentration 10.0 uM
[3] = target: 5-hydroxytryptamine receptor 1E (Homo sapiens) (UniProt P28566); details: Compound concentration 10.0 uM
[4] = target: Muscarinic acetylcholine receptor M1 (Homo sapiens) (UniProt P11229); details: Compound concentration 10.0 uM
[5] = target: Alpha-2A adrenergic receptor (Homo sapiens) (UniProt P08913); details: Compound concentration 10.0 uM
[6] = target: 5-hydroxytryptamine receptor 2B (Homo sapiens) (UniProt P41595); details: Compound concentration 10.0 uM
[7] = target: D(1A) dopamine receptor (Homo sapiens) (UniProt P21728); details: Compound concentration 10.0 uM
[8] = target: 5-hydroxytryptamine receptor 5A (Homo sapiens) (UniProt P47898); details: Compound concentration 10.0 uM
[9] = target: Alpha-2B adrenergic receptor (Homo sapiens) (UniProt P18089); details: Compound concentration 10.0 uM
[10] = target: Alpha-2C adrenergic receptor (Homo sapiens) (UniProt P18825); details: Compound concentration 10.0 uM
[11] = target: Sodium-dependent noradrenaline transporter (Homo sapiens) (UniProt P23975); details: Compound concentration 10.0 uM
[12] = target: T1, Sodium-dependent dopamine transporter (Homo sapiens, UniProt Q01959); experiment: GPCRScan assay: inhibition of DAT; set-up: radioligand conc. used [nm] 3.6 – 16.0, parental cells stable HEK
[13] = target: Alpha-1B adrenergic receptor (Homo sapiens) (UniProt P35368); details: Compound concentration 10.0 uM
[14] = target: Kappa-type opioid receptor (Homo sapiens) (UniProt P41145); details: Compound concentration 10.0 uM
[15] = target: T1, Sodium-dependent dopamine transporter; details: Compound concentration 10.0 uM
[16] = target: Mu-type opioid receptor (Homo sapiens) (UniProt P35372); details: Compound concentration 10.0 uM
[17] = target: Delta-type opioid receptor (Homo sapiens) (UniProt P41143); details: Compound concentration 10.0 uM
[18] = target: 5-hydroxytryptamine receptor 1A (Homo sapiens) (UniProt P08908); details: Compound concentration 10.0 uM
[19] = target: Sigma intracellular receptor 2 (Homo sapiens) (UniProt Q5BJF2); details: Compound concentration 10.0 uM
[20] = target: D(2) dopamine receptor (Homo sapiens) (UniProt P14416); details: Compound concentration 10.0 uM
[21] = target: 5-hydroxytryptamine receptor 2C (Homo sapiens) (UniProt P28335); details: Compound concentration 10.0 uM
[22] = target: T2, D(4) dopamine receptor (Homo sapiens) (UniProt P21917); details: Compound concentration 10.0 uM
T2 sequence (whole entry): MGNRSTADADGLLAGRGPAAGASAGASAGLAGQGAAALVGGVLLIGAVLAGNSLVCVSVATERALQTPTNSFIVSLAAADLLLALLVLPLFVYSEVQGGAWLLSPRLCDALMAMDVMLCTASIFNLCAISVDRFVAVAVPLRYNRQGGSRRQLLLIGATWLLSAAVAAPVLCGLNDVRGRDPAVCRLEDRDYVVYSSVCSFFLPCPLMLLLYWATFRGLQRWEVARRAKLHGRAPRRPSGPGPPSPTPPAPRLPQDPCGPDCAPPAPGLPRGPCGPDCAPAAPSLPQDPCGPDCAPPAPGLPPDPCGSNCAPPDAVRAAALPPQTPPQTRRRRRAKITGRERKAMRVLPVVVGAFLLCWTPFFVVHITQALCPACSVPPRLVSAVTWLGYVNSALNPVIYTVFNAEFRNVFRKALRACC

[23] = target: Histamine H2 receptor (Homo sapiens) (UniProt P25021); details: Compound concentration 10.0 uM
[24] = target: T3, GABA-A receptor; anion channel (Rattus norvegicus) (UniProt O09028+P15431+P18506+P18508+P19969+P20236+P23574+P23576+P28471+P28473+P30191+P62813+P63079+P63138+Q91ZM7+Q9ES14); details: Compound concentration 10.0 uM
[25] = target: 5-hydroxytryptamine receptor 7 (Homo sapiens) (UniProt P34969); details: Compound concentration 10.0 uM
Rattus norvegicus = organism: Rattus norvegicus; details: Compound concentration 10.0 uM
[26] = target: T3, GABA-A receptor; anion channel (Rattus norvegicus); details: Compound concentration 10.0 uM; remark: listed apart in the source
[27] = target: Alpha-1D adrenergic receptor (Homo sapiens) (UniProt P25100); details: Compound concentration 10.0 uM
[28] = target: Muscarinic acetylcholine receptor M5 (Homo sapiens) (UniProt P08912); details: Compound concentration 10.0 uM
[29] = target: Sigma non-opioid intracellular receptor 1 (Homo sapiens) (UniProt Q99720); details: Compound concentration 10.0 uM
[30] = target: Alpha-1A adrenergic receptor (Homo sapiens) (UniProt P35348); details: Compound concentration 10.0 uM
[31] = target: Muscarinic acetylcholine receptor M2 (Homo sapiens) (UniProt P08172); details: Compound concentration 10.0 uM
[32] = target: Beta-2 adrenergic receptor (Homo sapiens) (UniProt P07550); details: Compound concentration 10.0 uM
[33] = target: Muscarinic acetylcholine receptor M4 (Homo sapiens) (UniProt P08173); details: Compound concentration 10.0 uM
[34] = target: Sodium-dependent serotonin transporter (Homo sapiens) (UniProt P31645); details: Compound concentration 10.0 uM
[35] = target: 5-hydroxytryptamine receptor 2A (Homo sapiens) (UniProt P28223); details: Compound concentration 10.0 uM
[36] = target: 5-hydroxytryptamine receptor 3A (Homo sapiens) (UniProt P46098); details: Compound concentration 10.0 uM
[37] = target: 5-hydroxytryptamine receptor 1D (Homo sapiens) (UniProt P28221); details: Compound concentration 10.0 uM
[38] = target: Inhibitor of nuclear factor kappa-B kinase subunit beta (Homo sapiens, UniProt O14920); experiment: Biochemical assay
[39] = target: Histamine H1 receptor (Homo sapiens) (UniProt P35367); details: Compound concentration 10.0 uM
[40] = target: Histamine H3 receptor (Homo sapiens) (UniProt Q9Y5N1); details: Compound concentration 10.0 uM

T1 sequence (Q01959 whole entry): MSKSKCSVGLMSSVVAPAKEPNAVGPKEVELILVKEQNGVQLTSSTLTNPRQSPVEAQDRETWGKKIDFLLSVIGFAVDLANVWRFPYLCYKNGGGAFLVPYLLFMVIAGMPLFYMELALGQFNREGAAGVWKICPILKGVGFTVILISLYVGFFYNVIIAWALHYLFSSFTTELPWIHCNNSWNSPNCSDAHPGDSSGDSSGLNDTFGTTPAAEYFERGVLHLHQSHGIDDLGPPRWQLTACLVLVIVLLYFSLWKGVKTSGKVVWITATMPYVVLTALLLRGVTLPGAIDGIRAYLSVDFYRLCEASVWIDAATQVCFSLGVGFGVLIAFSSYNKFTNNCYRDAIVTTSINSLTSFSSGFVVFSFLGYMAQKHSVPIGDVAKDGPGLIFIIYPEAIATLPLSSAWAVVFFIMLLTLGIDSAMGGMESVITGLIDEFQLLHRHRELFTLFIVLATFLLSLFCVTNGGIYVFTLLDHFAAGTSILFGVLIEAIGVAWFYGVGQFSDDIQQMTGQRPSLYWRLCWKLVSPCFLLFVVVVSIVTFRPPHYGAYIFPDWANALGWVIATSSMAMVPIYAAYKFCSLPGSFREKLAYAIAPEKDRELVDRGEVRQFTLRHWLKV
Sequence of Sigma non-opioid intracellular receptor 1 (Homo sapiens) (Q99720 whole entry): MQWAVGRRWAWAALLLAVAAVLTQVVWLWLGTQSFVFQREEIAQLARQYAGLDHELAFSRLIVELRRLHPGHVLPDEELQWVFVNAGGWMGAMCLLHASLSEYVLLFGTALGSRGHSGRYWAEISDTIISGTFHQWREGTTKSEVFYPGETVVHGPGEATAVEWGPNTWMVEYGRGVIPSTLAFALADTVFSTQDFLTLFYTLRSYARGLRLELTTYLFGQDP
Sequence of 5-hydroxytryptamine receptor 5A (Homo sapiens) (P47898 whole entry): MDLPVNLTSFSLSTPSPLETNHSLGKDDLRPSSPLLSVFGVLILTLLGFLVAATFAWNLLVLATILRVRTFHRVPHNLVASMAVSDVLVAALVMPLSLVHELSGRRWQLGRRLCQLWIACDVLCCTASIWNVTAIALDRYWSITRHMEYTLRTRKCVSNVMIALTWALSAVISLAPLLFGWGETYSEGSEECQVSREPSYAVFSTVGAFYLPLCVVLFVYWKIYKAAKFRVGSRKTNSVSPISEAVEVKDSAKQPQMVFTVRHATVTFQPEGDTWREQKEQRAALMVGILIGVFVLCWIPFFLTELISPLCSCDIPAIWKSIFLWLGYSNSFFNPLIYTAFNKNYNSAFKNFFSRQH
Sequence of Sodium-dependent serotonin transporter (Homo sapiens) (P31645 whole entry, looked up): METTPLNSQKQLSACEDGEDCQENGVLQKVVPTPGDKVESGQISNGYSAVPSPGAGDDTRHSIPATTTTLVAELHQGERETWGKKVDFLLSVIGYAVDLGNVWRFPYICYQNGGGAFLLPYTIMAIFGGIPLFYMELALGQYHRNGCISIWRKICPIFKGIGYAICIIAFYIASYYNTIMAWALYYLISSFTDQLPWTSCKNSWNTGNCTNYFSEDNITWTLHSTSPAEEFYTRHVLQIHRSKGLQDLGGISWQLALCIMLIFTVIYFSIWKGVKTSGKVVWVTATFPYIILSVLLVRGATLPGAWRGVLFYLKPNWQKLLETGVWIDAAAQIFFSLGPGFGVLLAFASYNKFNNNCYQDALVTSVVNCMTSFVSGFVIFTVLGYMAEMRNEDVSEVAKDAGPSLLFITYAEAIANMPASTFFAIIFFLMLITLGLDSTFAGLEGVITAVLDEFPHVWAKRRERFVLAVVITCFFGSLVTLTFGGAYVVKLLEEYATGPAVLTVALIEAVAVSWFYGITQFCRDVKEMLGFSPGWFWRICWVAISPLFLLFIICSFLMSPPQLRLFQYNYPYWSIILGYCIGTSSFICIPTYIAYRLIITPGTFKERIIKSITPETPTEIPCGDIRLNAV
Sequence of Muscarinic acetylcholine receptor M2 (Homo sapiens) (P08172 whole entry): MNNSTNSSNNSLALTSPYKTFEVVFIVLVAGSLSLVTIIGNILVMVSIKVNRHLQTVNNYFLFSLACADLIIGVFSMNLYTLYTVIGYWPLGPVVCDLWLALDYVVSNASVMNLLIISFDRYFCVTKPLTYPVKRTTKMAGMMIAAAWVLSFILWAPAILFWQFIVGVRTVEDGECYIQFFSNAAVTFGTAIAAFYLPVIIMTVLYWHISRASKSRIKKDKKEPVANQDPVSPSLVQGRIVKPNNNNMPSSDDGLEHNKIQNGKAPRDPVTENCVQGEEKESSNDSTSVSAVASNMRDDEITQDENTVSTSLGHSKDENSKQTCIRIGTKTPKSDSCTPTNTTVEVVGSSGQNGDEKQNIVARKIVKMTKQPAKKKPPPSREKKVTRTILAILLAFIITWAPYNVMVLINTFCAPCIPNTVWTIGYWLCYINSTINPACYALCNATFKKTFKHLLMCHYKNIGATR
Sequence of 5-hydroxytryptamine receptor 2B (Homo sapiens) (P41595 whole entry): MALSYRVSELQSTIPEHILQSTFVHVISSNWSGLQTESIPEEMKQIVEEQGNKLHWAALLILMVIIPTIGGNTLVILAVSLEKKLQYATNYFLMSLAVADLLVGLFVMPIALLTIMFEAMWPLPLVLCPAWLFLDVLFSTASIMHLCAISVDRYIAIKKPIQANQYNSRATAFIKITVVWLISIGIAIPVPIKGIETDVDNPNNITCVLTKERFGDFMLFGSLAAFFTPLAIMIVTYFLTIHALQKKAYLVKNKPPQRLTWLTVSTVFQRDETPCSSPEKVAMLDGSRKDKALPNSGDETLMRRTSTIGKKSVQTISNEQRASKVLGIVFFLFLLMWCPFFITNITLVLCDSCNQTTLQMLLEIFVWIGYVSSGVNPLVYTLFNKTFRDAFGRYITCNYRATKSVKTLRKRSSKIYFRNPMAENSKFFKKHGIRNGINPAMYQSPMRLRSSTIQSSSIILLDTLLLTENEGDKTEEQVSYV
Sequence of 5-hydroxytryptamine receptor 6 (Homo sapiens) (P50406 whole entry): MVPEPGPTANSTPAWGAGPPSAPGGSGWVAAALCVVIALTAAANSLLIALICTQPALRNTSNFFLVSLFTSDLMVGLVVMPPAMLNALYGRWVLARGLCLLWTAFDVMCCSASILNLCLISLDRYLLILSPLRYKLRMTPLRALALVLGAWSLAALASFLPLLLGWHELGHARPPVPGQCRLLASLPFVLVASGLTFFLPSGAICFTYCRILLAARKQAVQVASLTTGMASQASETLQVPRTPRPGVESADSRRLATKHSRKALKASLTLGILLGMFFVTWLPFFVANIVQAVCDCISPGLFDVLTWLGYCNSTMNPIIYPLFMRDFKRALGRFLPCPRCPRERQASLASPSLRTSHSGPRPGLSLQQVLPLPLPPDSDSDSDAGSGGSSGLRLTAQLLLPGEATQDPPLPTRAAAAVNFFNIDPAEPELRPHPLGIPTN
Sequence of Muscarinic acetylcholine receptor M1 (Homo sapiens) (P11229 whole entry): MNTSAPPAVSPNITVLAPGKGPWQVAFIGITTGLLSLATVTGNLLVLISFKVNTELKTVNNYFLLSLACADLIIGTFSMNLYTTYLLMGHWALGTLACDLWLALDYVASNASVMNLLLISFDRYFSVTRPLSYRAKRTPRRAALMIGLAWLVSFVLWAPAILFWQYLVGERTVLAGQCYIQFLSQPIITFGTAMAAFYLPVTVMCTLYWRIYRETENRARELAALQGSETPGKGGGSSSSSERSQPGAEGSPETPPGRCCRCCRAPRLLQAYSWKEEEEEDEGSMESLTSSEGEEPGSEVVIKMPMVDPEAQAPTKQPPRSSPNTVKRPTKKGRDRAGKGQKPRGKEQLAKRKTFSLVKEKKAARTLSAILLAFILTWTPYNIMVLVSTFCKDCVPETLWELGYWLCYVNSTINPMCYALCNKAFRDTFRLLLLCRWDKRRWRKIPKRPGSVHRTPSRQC
Sequence of Histamine H2 receptor (Homo sapiens) (P25021 whole entry): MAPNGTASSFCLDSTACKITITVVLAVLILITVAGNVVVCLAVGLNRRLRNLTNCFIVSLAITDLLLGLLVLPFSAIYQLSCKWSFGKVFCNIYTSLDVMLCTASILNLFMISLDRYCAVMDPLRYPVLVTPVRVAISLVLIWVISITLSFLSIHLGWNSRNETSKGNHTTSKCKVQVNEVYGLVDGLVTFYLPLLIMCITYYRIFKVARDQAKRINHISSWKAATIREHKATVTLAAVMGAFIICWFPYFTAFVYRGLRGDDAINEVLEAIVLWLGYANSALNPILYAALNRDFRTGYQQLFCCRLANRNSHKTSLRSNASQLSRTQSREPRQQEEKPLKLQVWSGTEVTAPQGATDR
Sequence of Beta-2 adrenergic receptor (Homo sapiens) (P07550 whole entry, looked up): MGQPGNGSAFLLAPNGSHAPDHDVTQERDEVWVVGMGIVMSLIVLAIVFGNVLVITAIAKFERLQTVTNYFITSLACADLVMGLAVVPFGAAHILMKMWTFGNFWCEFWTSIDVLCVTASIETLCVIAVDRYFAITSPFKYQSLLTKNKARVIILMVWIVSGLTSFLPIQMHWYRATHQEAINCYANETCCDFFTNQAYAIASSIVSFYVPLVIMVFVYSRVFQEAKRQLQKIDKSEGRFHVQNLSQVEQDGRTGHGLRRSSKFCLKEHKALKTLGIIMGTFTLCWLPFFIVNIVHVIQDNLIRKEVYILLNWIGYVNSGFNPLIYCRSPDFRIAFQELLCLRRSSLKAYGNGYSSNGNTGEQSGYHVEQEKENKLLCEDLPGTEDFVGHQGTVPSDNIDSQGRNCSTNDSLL
Sequence of Alpha-2C adrenergic receptor (Homo sapiens) (P18825 whole entry): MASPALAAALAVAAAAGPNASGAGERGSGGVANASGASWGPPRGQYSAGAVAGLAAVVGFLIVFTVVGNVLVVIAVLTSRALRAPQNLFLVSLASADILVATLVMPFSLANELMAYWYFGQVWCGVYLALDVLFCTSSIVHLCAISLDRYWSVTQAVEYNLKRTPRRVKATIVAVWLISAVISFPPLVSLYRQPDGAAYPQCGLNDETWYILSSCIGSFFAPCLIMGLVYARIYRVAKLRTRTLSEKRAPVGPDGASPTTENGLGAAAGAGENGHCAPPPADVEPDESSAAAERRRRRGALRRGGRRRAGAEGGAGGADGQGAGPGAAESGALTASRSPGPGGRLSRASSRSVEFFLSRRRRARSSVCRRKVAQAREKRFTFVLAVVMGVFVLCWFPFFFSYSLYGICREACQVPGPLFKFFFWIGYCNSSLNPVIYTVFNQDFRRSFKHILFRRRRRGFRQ

Structure (SMILES): CN(C)C(=O)c1sc2nc(N3CCC(S(C)(=O)=O)CC3)cc(C(F)(F)F)c2c1N [BI-5026]
- inhibition [1]: 24.2%
- inhibition [2]: 7.05%
- inhibition [3]: 2.45%
- inhibition [4]: 0.25%
- inhibition [5]: 13%
- inhibition [6]: 47.5%
- inhibition [7]: 1.22%
- inhibition [8]: 5.35%
- inhibition [9]: 3.36%
- inhibition [10]: 2.96%
- inhibition [11]: 1.7%
- Ki ([12]; read-out: Ki): 4.27 µM
- Ki ([12]; read-out: pKi (converted)): 4.27 µM
- inhibition [13]: -7.86%
- inhibition [14]: 9.53%
- inhibition [15]: 80.5%
- inhibition [16]: 22.4%
- inhibition [17]: 8.58%
- inhibition [18]: 40.6%
- inhibition [19]: 70.6%
- inhibition [20]: 1.12%
- inhibition [21]: 11.6%
- inhibition [22]: 4.15%
- inhibition [23]: -1.35%
- inhibition [24]: 3.61%
- inhibition [25]: 2.32%
- inhibition (Rattus norvegicus): 27.9%
- inhibition [26]: 13.5%
- inhibition [27]: 7.27%
- inhibition [28]: -6.93%
- inhibition [29]: 31.5%
- inhibition [30]: 22.8%
- inhibition [31]: 13.4%
- inhibition [32]: 6.22%
- inhibition [33]: 3.63%
- inhibition [34]: 18.1%
- inhibition [35]: -1.79%
- inhibition [36]: 10.3%
- inhibition [37]: 6.7%
- IC50 [38]: > 10 µM (not active)
- inhibition [39]: 24.5%
- inhibition [40]: -1.1%
